Counter-ions that a name gives are not always drawn.
test: in vitro; details: rat, gh3-tre-luc cells, AC50 (uM) modified / 1000

SMILES | CC50 at 24 h
COc1cc(OC)nc(NC(=O)NS(=O)(=O)c2ncccc2C(=O)N(C)C)n1 [Nicosulfuron] | > 90 µM
C=CC(=O)OCC(CC)CCCC (centres unmarked) [2-Ethylhexyl acrylate] | > 90 µM
CCO[C@@H](Cc1ccc(OCCc2ccc(OS(C)(=O)=O)cc2)cc1)C(=O)O [Tesaglitazar] | > 50 µM
CC(C)C(O)(c1ccc(OC(F)(F)F)cc1)c1cncnc1 (centres unmarked) [Flurprimidol] | > 90 µM
CCCCC[C@H](O)/C=C/[C@@H]1[C@H]2C/C(=C/CCCC(=O)O)O[C@H]2C[C@H]1O [Epoprostenol sodium] | > 50 µM
COc1cc(C[C@@H](C)N)c(OC)cc1C [R-(-)-2,5-Dimethoxy-4-methylamphetamine hydrochloride] | 41.9 µM
Cc1c(N)cccc1Cl [3-Chloro-2-methylaniline] | > 90 µM
CN(c1nccc(=O)[nH]1)C1CCN(c2nc3ccccc3n2Cc2ccc(F)cc2)CC1 [Mizolastine] | > 50 µM
NC(=O)OCC(COC(N)=O)c1ccccc1 [Felbamate] | > 90 µM
N#CSc1ccc(N)c([N+](=O)[O-])c1 [2-Nitro-4-thiocyanoaniline] | 51.1 µM
CO/N=C(/C(=O)OC)c1ccccc1CO/N=C(\C)c1cccc(C(F)(F)F)c1 [Trifloxystrobin] | 36.9 µM
CC1=C(C(=O)Nc2ccccc2)SCCO1 [Carboxin] | > 90 µM
CC(=O)N[C@@H](Cc1ccc(O)cc1)C(=O)O [N-Acetyl-L-tyrosine] | > 50 µM
CCC1(c2ccc(N)cc2)CCC(=O)NC1=O (centres unmarked) [Aminoglutethimide] | > 50 µM
CCCCCC(=O)O [Hexanoic acid] | > 90 µM
Fc1ccc([C@@]2(Cn3cncn3)O[C@@H]2c2ccccc2Cl)cc1 (racemic) [Epoxiconazole] | > 90 µM
CCc1cccc(CC)c1N [2,6-Diethylaniline] | > 90 µM
CCCCCCC(C)OC(=O)COc1nc(F)c(Cl)c(N)c1Cl (centres unmarked) [Fluroxypyr-meptyl] | 51.1 µM
OCCN(CCO)c1nc(N2CCCCC2)c2nc(N(CCO)CCO)nc(N3CCCCC3)c2n1 [Dipyridamole] | > 50 µM
SC1CCCCC1 [Cyclohexanethiol] | > 100 µM

SMILES | CC50 at 24 h
CC(C)NCC(O)COc1ccc(COCCOC(C)C)cc1 (centres unmarked) [Bisoprolol fumarate] | > 50 µM
Clc1ccc(-c2ccc(Cl)c(Cl)c2Cl)c(Cl)c1Cl [Aroclor 1260] | > 90 µM
O=c1ssc(Cl)c1Cl [4,5-Dichloro-3H-1,2-dithiol-3-one] | 48 µM
COc1cc(CCC(C)=O)ccc1O [4-(4-Hydroxy-3-methoxyphenyl)-2-butanone] | > 90 µM
CCOc1ccc(N)c([N+](=O)[O-])c1 [4-Ethoxy-2-nitroaniline] | > 90 µM
CCCCc1ccccc1 [Butylbenzene] | > 90 µM
NS(=O)(=O)c1ccc(NC(=O)CCC(=O)O)cc1 [Sulfasuccinamide] | > 50 µM
Cc1ccc(C(N)=O)cc1N [3-Amino-4-methylbenzamide] | > 90 µM
CC(C)=CCC/C(C)=C/CC/C(C)=C/CO [Farnesol] | 68.1 µM
CC[C@H](C)C(=O)O[C@H]1CCC=C2C=C[C@H](C)[C@H](CC[C@@H]3C[C@@H](O)CC(=O)O3)[C@H]21 [Mevastatin] | > 50 µM
C=CCCC [1-Pentene] | > 90 µM
Cc1nnc2n1-c1sc(Br)cc1C(c1ccccc1Cl)=NC2 [Brotizolam] | 32.6 µM
CCCCCCOC(=O)CC [Hexyl propanoate] | > 90 µM
CCCCCCCC(=O)OCCCCCC [Hexyl octanoate] | > 90 µM
CCOC(=O)O[C@H](C)OC(=O)c1ccc2c(c1)cc(C(=O)NC1CCN(C(C)C)CC1)n2Cc1cc(-c2ccc(Cl)s2)on1 [AVE6324] | 4.58 µM
OCCN(CCO)c1ccccc1 [N-Phenyldiethanolamine] | > 90 µM
CC(C)N1C(=O)N(c2ccccc2)CS/C1=N\C(C)(C)C [Buprofezin] | 45.1 µM
C[Si](C)O[Si](C)(C)O[Si](C)(C)O[Si](C)C | > 90 µM
CC(=O)OCC(=O)[C@@]1(O)CC[C@H]2[C@@H]3CCC4=CC(=O)CC[C@]4(C)[C@H]3C(=O)C[C@@]21C [Cortisone acetate] | > 50 µM
O=C(OCCCCCOC(=O)c1ccccc1)c1ccccc1 [Pentane-1,5-diyl dibenzoate] | > 90 µM

SMILES | CC50 at 24 h
Oc1ccc(C(O)CNCCCCCCNCC(O)c2ccc(O)c(O)c2)cc1O (centres unmarked) [Hexoprenaline sulfate] | 20.9 µM
Cc1cc(CC(=O)O)n(C)c1C(=O)c1ccc(Cl)cc1 [Sodium zomepirac] | > 90 µM
CCCCCCCCCI [1-Iodononane] | > 90 µM
CCCCc1ccc2[nH]c(NC(=O)OC)nc2c1 [Parbendazole] | 0.0667 µM
CC1COC(Cn2cncn2)(c2ccc(Oc3ccc(Cl)cc3)cc2Cl)O1 (centres unmarked) [Difenoconazole] | 41.3 µM
CCCCCCCCCCCCCCCC/C=C/C1CC(=O)OC1=O (centres unmarked) [Dihydro-3-(octadecenyl)-2,5-furandione] | 36 µM
CC1CCCCC1NC(=O)Nc1ccccc1 (centres unmarked) [Siduron] | > 90 µM
O[C@@H](CNC[C@H](O)[C@H]1CCc2cc(F)ccc2O1)[C@@H]1CCc2cc(F)ccc2O1 (racemic) [rac Nebivolol hydrochloride] | 7.99 µM
CC1CN(c2cc3c(cc2F)c(=O)c(C(=O)O)cn3-c2ccc(F)cc2F)CCN1 (centres unmarked) [Temafloxacin] | > 50 µM
NS(=O)(=O)c1cc2c(cc1Cl)NC(CC1CCCC1)NS2(=O)=O (centres unmarked) [Cyclopenthiazide] | > 20 µM
COc1ccc(N=[N+]([O-])c2ccc(OC)cc2)cc1 [4-Azoxyanisole] | > 90 µM
OC[C@H]1O[C@@H](n2cnc3c(O)ncnc32)[C@H](O)[C@@H]1O [Inosine] | > 50 µM
CC1=NN(c2ccc(S(=O)(=O)O)cc2)C(=O)C1N=Nc1ccccc1 (centres unmarked) [Acid Yellow 11] | 69.4 µM
CCCCCCC(=O)O [Heptanoic acid] | > 90 µM
CC[N+](CC)(CC)CCC(O)(c1ccccc1)C1CCCCC1 (centres unmarked) [Tridihexethyl chloride] | > 20 µM
O=C(O)CF [Sodium fluoroacetate] | > 90 µM
CCCCCCCC=O [Octanal] | > 90 µM
Cc1ccc(Nc2nccc(N(C)c3ccc4c(C)n(C)nc4c3)n2)cc1S(N)(=O)=O [Pazopanib] | > 50 µM

same assay, conditions: rat, gh3-tre-luc cells, AC50 (uM) modified / 1000, Tox21_110001=Tox21_111175; viability, 1 nM T3 present, 24 h

SMILES | CC50 at 24 h
CCOC(=O)CC(SP(=S)(OC)OC)C(=O)OCC (centres unmarked) [Malathion] | > 50 µM

same assay, conditions: rat, gh3-tre-luc cells, AC50 (uM) modified / 1000, Tox21_110001=Tox21_111641; viability, 1 nM T3 present, 24 h

SMILES | CC50 at 24 h
CCC1(c2ccccc2)CCC(=O)NC1=O (centres unmarked) [Glutethimide] | > 50 µM

same assay, conditions: rat, gh3-tre-luc cells, AC50 (uM) modified / 1000, Tox21_110001=Tox21_200839; viability, 1 nM T3 present, 24 h

SMILES | CC50 at 24 h
Cc1ccc2ccccc2c1 [2-Methylnaphthalene] | > 90 µM

same assay, conditions: rat, gh3-tre-luc cells, AC50 (uM) modified / 1000, Tox21_110001=Tox21_201292; viability, 1 nM T3 present, 24 h

SMILES | CC50 at 24 h
Cc1cc(-c2ccc(N)c(C)c2)ccc1N [3,3'-Dimethylbenzidine] | > 90 µM

same assay, conditions: rat, gh3-tre-luc cells, AC50 (uM) modified / 1000, Tox21_110001=Tox21_202246; viability, 1 nM T3 present, 24 h

SMILES | CC50 at 24 h
CNC(=O)CSP(=S)(OC)OC [Dimethoate] | > 90 µM

same assay, conditions: rat, gh3-tre-luc cells, AC50 (uM) modified / 1000, Tox21_110001=Tox21_300175; viability, 1 nM T3 present, 24 h

SMILES | CC50 at 24 h
CCOP(=S)(OCC)SCSP(=S)(OCC)OCC [Ethion] | > 90 µM

same assay, conditions: rat, gh3-tre-luc cells, AC50 (uM) modified / 1000, Tox21_110001=Tox21_301855; viability, 1 nM T3 present, 24 h

SMILES | CC50 at 24 h
Cc1cc(OC(=O)N(C)C)nn1C(=O)N(C)C [Dimetilan] | > 90 µM

same assay, conditions: rat, gh3-tre-luc cells, AC50 (uM) modified / 1000, Tox21_110001=Tox21_301908; viability, 1 nM T3 present, 24 h

SMILES | CC50 at 24 h
COP(=S)(OC)Oc1ccc([N+](=O)[O-])cc1Cl [Dicapthon] | > 90 µM

same assay, conditions: rat, gh3-tre-luc cells, AC50 (uM) modified / 1000, Tox21_110001=Tox21_303313; viability, 1 nM T3 present, 24 h

SMILES | CC50 at 24 h
CCCCC(CC)COP(=O)(Oc1ccccc1)Oc1ccccc1 (centres unmarked) [2-Ethylhexyl diphenyl phosphate] | > 90 µM

same assay, conditions: rat, gh3-tre-luc cells, AC50 (uM) modified / 1000, Tox21_110001=Tox21_400048; viability, 1 nM T3 present, 24 h

SMILES | CC50 at 24 h
CCOC(=O)CC(SP(=S)(OC)OC)C(=O)OCC (centres unmarked) [Malathion] | > 90 µM
